Results as given in patent US20120035247A1, “RNA Interference Mediated Inhibition of Signal Transducer and Activator of Transcription 6 (STAT6) Gene Expression Using Short Interfering Nucleic Acid (siNA)” (Merck Sharp & Dohme Corp., priority 2009, published 2012).
[invAb] = inverted abasic unit; m = 2'-O-methyl; r = 2'-OH (RNA); f = 2'-fluoro

Tests used:
STAT6 mRNA [1] = test: STAT6 siNA screen and dose response in human A549 cells, STAT6 mRNA by quantitative RT-PCR (Taqman); type: cell-based; details: human A549 cells, 10 nM siNA, 24 hrs, normalized to GAPDH and non-targeting control, mean ± S.D., n = 3
Procedure: A549 (human; ATCC cat# CCL-185): Cells were cultured at 37° C. in the presence of 5% CO2 and grown in Ham's F12K medium with 2 mM L-glutamine adjusted to contain 1.5 g/L sodium bicarbonate and supplemented with fetal bovine serum at a final concentration of 10%, 100 μg/mL of streptomycin, and 100 U/mL penicillin.
(§1) Cells were plated in all wells of a tissue-culture treated, 96-well plate at a final count of 5000 cells/well in […], of the appropriate culture media. The cells were cultured for 24 hours after plating at 37° C. in the presence of 5% CO2.
(§2) After 24 hours, complexes containing siNA and RNAiMax were created as follows: A solution of RNAiMax diluted 33-fold in OPTI-MEM was prepared. In parallel, solutions of the siNAs for testing were prepared to a final concentration of 120 nM in OPTI-MEM. After incubation of RNAiMax/OPTI-MEM solution at room temperature for 5 min, an equal volume of the siNA solution and the RNAiMax solution were added together for each of the siNAs.
(§3) This solution was incubated at room temperature for 20 minutes. After incubation, 20 uL of the solution was added to each of the relevant wells. The final concentration of siNA in each well was 10 nM and the final volume of RNAiMax in each well was 0.3u1.
(§4) The time of incubation with the RNAiMax-siNA complexes was 24 hours and there was no change in media between transfection and harvesting, unless otherwise indicated.
(§5) RNA was extracted from a 96-well plate using the TaqMan® Gene Expression Cells-to-CT™ Kit (Cat#4399002) with a modified protocol. Briefly, a 60 uL (1 plate) or 110 uL (2 plates) of the Lysis Solution with DNase I was dispensed into each well of the Lysis Buffer Plate (twin.tec full skirt plate). The lysis buffer and stop plates were stored at 4° C. until the cells were washed.
(§6) The plate was spun at 1100 rpm for 5 minutes. The culture medium was aspirated and discarded from the wells of the culture plate. The lysis was performed automatically using a BioMek FX instrument and method. After the Biomek method was completed, the lysis plate was incubated for 2 min. at room temperature. The lysis plate can be stored for 2 hours at 4° C., or at −20° C. or −80° C. for two months.
(§7) Each well of the reverse transcription plate required 10 uL of 2× reverse transcriptase Buffer, luL of 20× reverse transcription enzyme and 2 uL of nuclease-free water. The reverse transcription master mix was prepared by mixing 2× reverse transcription buffer, 20× reverse transcription enzyme mix, and nuclease-free water. 13 uL of the reverse transcription master mix was dispensed into each well of the reverse transcription plate (semi-skirted). A separate reverse transcription plate was prepared for each cell plate. The plate was loaded onto a Biomek NX or Biomek FX Dual-96 and the Biomek method was run. The program is programmed to automatically added 7 uL of lysate from the cell lysis procedure described above into each well of the reverse transcription plate. The plate is sealed and spun on a centrifuge (1000 rpm for 30 seconds) to settle the contents to the bottom of the reverse transcription plate. The plate is placed in a thermocycler at 37° C. for 60 min, 95° C. for 5 min, and 4° C. until the plate is removed from the thermocycler. Upon removal, if not used immediately, the plate was frozen at −20° C.
(§8) A series of probes and primers were used to detect the various mRNA transcripts of the genes of 13-Actin (human cell line only), and of STATE and GAPDH in mouse and human cell lines. All Taqman probes and primers for the experiments here-in described were supplied as pre-validated sets by Applied Biosystems, Inc. (see Table 2).
The assays were performed on an ABI 7900 instrument, according to the manufacturer's instructions. A TaqMan Gene Expression Master Mix (provided in the Cells-to-CTT™, Applied Biosystems, Cat #4399002) was used. The PCR reactions were carried out at 50° C. for 2 min, 95° C. for 20 min followed by 40 cycles at 95° C. for 15 secs and 60° C. for 1 min. […]

STAT6 mRNA [2] = test: STAT6 siNA screen in mouse NIH 3T3 cells, STAT6 mRNA by quantitative RT-PCR (Taqman); type: cell-based; details: mouse NIH3T3 cells, 10 nM siNA, 24 hrs, normalized to GAPDH and non-targeting control, n = 2
Procedure: NIH 3T3 (mouse; ATCC cat# CRL-1658): Cells were cultured at 37° C. in the presence of 5% CO2 and grown in Dulbecco's modified Eagle's medium (DMEM) with 4 mM L-glutamine adjusted to contain 1.5 g/L sodium bicarbonate and 4.5 g/L glucose and supplemented with fetal bovine serum at a final concentration of 10%, 100 μg/mL of streptomycin, and 100 U/mL penicillin.
as §1, §2, §3, §4, §5, §6, §7, §8
The assays were performed on an ABI 7900 instrument, according to the manufacturer's instructions. A TaqMan Gene Expression Master Mix (provided in the Cells-to-CTT™, Applied Biosystems, Cat #4399002) was used. […]

Substance | % KD STAT6 (STAT6 mRNA [1]) [%] | % KD STAT6 (STAT6 mRNA [2]) [%]
29989-DC: STAT6 siNA duplex; sense SEQ ID NO: 42, antisense SEQ ID NO: 43; target GAAGGCUUCUCCGCCCAUU, site 3187 (sense GAAGGCUUCUCCGCCCAUUTT; antisense AAUGGGCGGAGAAGCCUUCUU; sense: DNA at AGT, 2'-fluoro at CU, [invAb] at 5' end, 3' end, backbone not given here; antisense: sugars from the 5' end rrrmmmfmmmmmmmfffffmm, backbone not given here) [STAT6 siNA duplex; target GAAGGCUUCUCCGCCCAUU, site 3187] | 29.1 ± 3.8 | −18.3 ± 7.1
29991-DC: STAT6 siNA duplex; sense SEQ ID NO: 46, antisense SEQ ID NO: 47; target CAGCCAAAGCCCUAGUGCU, site 846 (sense CAGCCAAAGCCCUAGUGCUTT; antisense AGCACUAGGGCUUUGGCUGUU; sense: DNA at AGT, 2'-fluoro at CU, [invAb] at 5' end, 3' end, backbone not given here; antisense: sugars from the 5' end rrrmffmmmmffffmmffmmm, backbone not given here) [STAT6 siNA duplex; target …UAGUGCU, site 846] | −2.1 ± 17.7 | −30 ± 9.2
29992-DC: STAT6 siNA duplex; sense SEQ ID NO: 48, antisense SEQ ID NO: 49; target CUGAGAACCCUCGUCACCA, site 1064 (sense CUGAGAACCCUCGUCACCATT; antisense UGGUGACGAGGGUUCUCAGUU; sense: DNA at AGT, 2'-fluoro at CU, [invAb] at 5' end, 3' end, backbone not given here; antisense: sugars from the 5' end rrrfmmfmmmmmfffffmmmm, backbone not given here) [STAT6 siNA duplex; target CUGAGAACCCUCGUCACCA, site 1064] | 51.2 ± 0.4 | −0.5 ± 1
29993-DC: STAT6 siNA duplex; sense SEQ ID NO: 50, antisense SEQ ID NO: 51; target CCCUUGAGAGCAUAUAUCA, site 519 (sense CCCUUGAGAGCAUAUAUCATT; antisense UGAUAUAUGCUCUCAAGGGUU; sense: DNA at AGT, 2'-fluoro at CU, [invAb] at 5' end, 3' end, backbone not given here; antisense: sugars from the 5' end rrrfmfmfmffmfmmmmmmmm, backbone not given here) [STAT6 siNA duplex; target CCCUUGAGAGCAUAUAUCA, site 519] | 24.4 ± 8.1 | −23.4 ± 1.6
29994-DC: STAT6 siNA duplex; sense SEQ ID NO: 52, antisense SEQ ID NO: 53; target CUGAUCAUUGGCUUCAUCA, site 1880 (sense CUGAUCAUUGGCUUCAUCATT; antisense UGAUGAAGCCAAUGAUCAGUU; sense: DNA at AGT, 2'-fluoro at CU, [invAb] at 5' end, 3' end, backbone not given here; antisense: sugars from the 5' end rrrfmmmmffmmfmmffmmmm, backbone not given here) [STAT6 siNA duplex; target CUGAUCAUUGGCUUCAUCA, site 1880] | 1.9 ± 15.7 | −13.9 ± 4.1
29995-DC: STAT6 siNA duplex; sense SEQ ID NO: 54, antisense SEQ ID NO: 55; target CAGGAUGGCUCUCCACAGA, site 2009 (sense CAGGAUGGCUCUCCACAGATT; antisense UCUGUGGAGAGCCAUCCUGUU; sense: DNA at AGT, 2'-fluoro at CU, [invAb] at 5' end, 3' end, backbone not given here; antisense: sugars from the 5' end rrrmfmmmmmmffrffffmmm, backbone not given here) [STAT6 siNA duplex; target CAGGAUGGCUCUCCACAGA, site 2009] | 20.4 ± 5.1 | −6.6 ± 1.3
29996-DC: STAT6 siNA duplex; sense SEQ ID NO: 56, antisense SEQ ID NO: 57; target GCACCAUCUUGCAACACAU, site 495 (sense GCACCAUCUUGCAACACAUTT; antisense AUGUGUUGCAAGAUGGUGCUU; sense: DNA at AGT, 2'-fluoro at CU, [invAb] at 5' end, 3' end, backbone not given here; antisense: sugars from the 5' end rrrfmffmfmmmmfmmfmfmm, backbone not given here) [STAT6 siNA duplex; target GCACCAUCUUGCAACACAU, site 495] | 49.5 ± 5.5 | −10.9 ± 0.1
29998-DC: STAT6 siNA duplex; sense SEQ ID NO: 60, antisense SEQ ID NO: 61; target CUUCUUAUGACCUUGGAAU, site 2274 (sense CUUCUUAUGACCUUGGAAUTT; antisense AUUCCAAGGUCAUAAGAAGUU; sense: DNA at AGT, 2'-fluoro at CU, [invAb] at 5' end, 3' end, backbone not given here; antisense: sugars from the 5' end rrrffmmmmffmfmmmmmmmm, backbone not given here) [STAT6 siNA duplex; target CUUCUUAUGACCUUGGAAU, site 2274] | 32.5 ± 3.5 | −3.8 ± 9.2
30000-DC: STAT6 siNA duplex; sense SEQ ID NO: 64, antisense SEQ ID NO: 65; target CACAUACAGAGCUCUCUGA, site 3114 (sense CACAUACAGAGCUCUCUGATT; antisense UCAGAGAGCUCUGUAUGUGUU; sense: DNA at AGT, 2'-fluoro at CU, [invAb] at 5' end, 3' end, backbone not given here; antisense: sugars from the 5' end rrrmmmmmffffmfmfmfmmm, backbone not given here) [STAT6 siNA duplex; target CACAUACAGAGCUCUCUGA, site 3114] | 40.5 ± 12.5 | −21.9 ± 5.7
30001-DC: STAT6 siNA duplex; sense SEQ ID NO: 66, antisense SEQ ID NO: 67; target GAAAGCCUGGUGGACAUUU, site 956 (sense GAAAGCCUGGUGGACAUUUTT; antisense AAAUGUCCACCAGGCUUUCUU; sense: DNA at AGT, 2'-fluoro at CU, [invAb] at 5' end, 3' end, backbone not given here; antisense: sugars from the 5' end rrrfmfffmffmmmfffffmm, backbone not given here) [STAT6 siNA duplex; target GAAAGCCUGGUGGACAUUU, site 956] | 48.2 ± 5 | −5.9 ± 6.6
